Measured values: publication PMC2248166, “Quantitative peptide binding motifs for 19 human and mouse MHC class I molecules derived using positional scanning combinatorial peptide libraries” (Immunome Research, 2008)

Experiments:
Type in all cases: binding
HLA B*1501 = HLA B*1501 (Homo sapiens, UniProt P01889, A329T/A93T/A95T/C349S/D201E/D98Y/E187L/E204Q/E69M/E70A/K202T/N87E/Q94N/R155S/R180W/S121R/S35A/S48A/V306I/V36M/Y140S/Y91S); experiment: biochemical
HLA B*5301 = HLA B*5301 (Homo sapiens, UniProt P01889, A329T/A93T/A95T/C349S/D201E/D98Y/E176V/E187L/E204Q/E69T/G107R/I218V/K202T/L105A/L119I/N104I/Q94N/R106L/R155S/R180L/S101N/S121R/S35A/S48A/T118I/V127L/V306I/V36M/Y140S/Y91F)
HLA B*0801 = HLA B*0801 (Homo sapiens, UniProt P01889, A93T/A95T/D138N/E176V/E187T/K202T/Q94N/R180D/S35A/V36M/Y33D/Y91F); experiment: biochemical
HLA A*6802 = HLA A*6802 (Homo sapiens, UniProt P04439, A269V/D140Y/D185E/E176V/E277Q/E87N/F33Y/G231S/I121R/I166T/I218V/L180W/L300P/L318F/N151K/P208A/P217A/Q86R/R138H/R169H/S129P/T345S/V36M)
H-2 K^k = H-2 K^k (Mus musculus, UniProt P04223)
HLA B*5401 = HLA B*5401 (Homo sapiens, UniProt P01889, A329T/C349S/D138N/D201E/E176V/E187T/E204Q/E69G/I76V/K202T/L119W/R155S/R180L/S121T/S35A/S48A/V127L/V306I/V36M/Y140L)
HLA B*5101 = HLA B*5101 (Homo sapiens, UniProt P01889, A329T/A93T/A95T/C349S/D138N/D201E/D98Y/E187L/E204Q/E69T/G107R/I218V/K202T/L105A/L119W/N104I/Q94N/R106L/R155S/R180L/S101N/S121T/S35A/S48A/V306I/V36M/Y195H/Y91F)
H-2 D^d = H-2 D^d (Mus musculus, UniProt P01900)
HLA B*1503 = HLA B*1503 (Homo sapiens, UniProt P01889, A329T/A93T/A95T/C349S/D201E/D98Y/E187L/E204Q/K202T/N87E/Q94N/R155S/R180L/S121R/S35A/V306I/V36M/Y140S/Y91S); experiment: biochemical
H-2 D^b = H-2 D^b (Mus musculus, UniProt P01899)
HLA B*5802 = HLA B*5802 (Homo sapiens, UniProt P01889, A329T/C349S/D201E/D98Y/E176V/E187L/E204Q/E69T/G107R/I218V/I90N/K202T/L105A/N104I/N87E/Q89R/Q94S/R106L/R155S/R180L/R86G/S101N/S121W/S35A/S48A/V127L/V306I/V36M/Y140S/Y91M)
HLA A*3001 = HLA A*3001 (Homo sapiens, UniProt P04439, D140H/D185E/E176W/F33S/G80R/H175R/K168Q/R138E/R41S); experiment: biochemical
HLA B*3501 = HLA B*3501 (Homo sapiens, UniProt P01889, A329T/A93T/A95T/C349S/D201E/D98Y/E176V/E187L/E204Q/E69T/I218V/K202T/L119I/Q94N/R155S/R180L/S121R/S35A/S48A/T118I/V127L/V306I/V36M/Y140S/Y91F)
H-2 K^d = H-2 K^d (Mus musculus, UniProt P01902)
HLA B*5801 = HLA B*5801 (Homo sapiens, UniProt P01889, A329T/C349S/D201E/D98Y/E176V/E187L/E204Q/E69T/G107R/I218V/I90N/K202T/L105A/L119I/N104I/N87E/Q89R/Q94S/R106L/R155S/R180L/R86G/S101N/S121R/S35A/S48A/T118I/V127L/V306I/V36M/Y140S/Y91M)
HLA A*3201 = HLA A*3201 (Homo sapiens, UniProt P04439, A270S/D101S/D185E/E176V/E277Q/F133L/G103R/G107R/G231S/H175R/I121M/I218V/I322F/K168Q/L105A/L300P/L318F/M331R/P208A/P217A/Q94H/R106L/R138Q/S129P/T104I/T323A/T345S/V100E/V321M/V358M); experiment: biochemical

Chain of H-2 K^k (P01887 21-119): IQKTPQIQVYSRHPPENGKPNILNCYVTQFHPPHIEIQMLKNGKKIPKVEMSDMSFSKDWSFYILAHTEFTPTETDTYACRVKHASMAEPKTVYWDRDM
Chain of H-2 K^k (P04223 22-369): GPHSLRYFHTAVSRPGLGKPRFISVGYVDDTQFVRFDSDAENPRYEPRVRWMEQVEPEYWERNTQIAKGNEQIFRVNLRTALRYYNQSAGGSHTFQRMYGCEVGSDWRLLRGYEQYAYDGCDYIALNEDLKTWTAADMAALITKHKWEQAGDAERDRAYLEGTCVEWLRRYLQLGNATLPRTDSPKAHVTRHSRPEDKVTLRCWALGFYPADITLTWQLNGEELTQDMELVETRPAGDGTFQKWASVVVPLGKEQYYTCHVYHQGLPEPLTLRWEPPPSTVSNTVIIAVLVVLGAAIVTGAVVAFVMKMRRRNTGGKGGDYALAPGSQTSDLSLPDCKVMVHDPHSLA
Chain of H-2 D^b (P01887 21-119): as the sequence (P01887 21-119) above
Chain of H-2 D^b (P01899 25-362): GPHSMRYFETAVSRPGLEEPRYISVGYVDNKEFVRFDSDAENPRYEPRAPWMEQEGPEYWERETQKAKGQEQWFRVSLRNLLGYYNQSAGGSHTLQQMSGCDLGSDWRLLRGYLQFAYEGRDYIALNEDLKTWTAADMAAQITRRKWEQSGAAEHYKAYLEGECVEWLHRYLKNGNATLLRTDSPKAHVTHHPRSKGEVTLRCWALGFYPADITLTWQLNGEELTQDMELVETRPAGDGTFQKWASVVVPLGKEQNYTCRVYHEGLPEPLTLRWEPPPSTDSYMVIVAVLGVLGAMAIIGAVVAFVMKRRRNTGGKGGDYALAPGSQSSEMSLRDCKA
Chain of H-2 K^d (P01887 21-119): as the sequence (P01887 21-119) above
Chain of H-2 K^d (P01902 22-368): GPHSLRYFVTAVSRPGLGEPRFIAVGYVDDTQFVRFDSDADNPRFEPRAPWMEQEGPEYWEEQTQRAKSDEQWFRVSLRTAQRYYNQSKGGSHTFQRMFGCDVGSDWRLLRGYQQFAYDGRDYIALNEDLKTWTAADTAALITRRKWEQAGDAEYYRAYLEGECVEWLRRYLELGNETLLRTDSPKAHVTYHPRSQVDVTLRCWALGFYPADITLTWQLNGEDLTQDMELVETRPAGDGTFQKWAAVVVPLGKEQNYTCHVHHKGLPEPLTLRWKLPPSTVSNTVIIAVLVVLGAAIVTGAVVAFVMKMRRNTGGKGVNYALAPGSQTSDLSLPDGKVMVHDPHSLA
Chain of H-2 D^d (P01900 whole entry, looked up): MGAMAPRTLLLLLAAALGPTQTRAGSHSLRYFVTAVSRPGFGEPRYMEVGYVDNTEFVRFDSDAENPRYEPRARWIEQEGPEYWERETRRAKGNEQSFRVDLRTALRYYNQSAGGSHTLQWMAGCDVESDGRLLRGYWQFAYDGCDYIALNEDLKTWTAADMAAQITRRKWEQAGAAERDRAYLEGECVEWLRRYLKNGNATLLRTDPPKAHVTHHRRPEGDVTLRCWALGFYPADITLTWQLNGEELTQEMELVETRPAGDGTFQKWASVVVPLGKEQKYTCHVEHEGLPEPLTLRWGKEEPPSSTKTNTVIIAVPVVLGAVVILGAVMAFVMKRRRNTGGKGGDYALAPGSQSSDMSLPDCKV

## XXXXXXXSX [3064.0156]
HLA B*1501
  Normalized average relative binding affinity(ARB): 0.34
HLA B*5301
  Normalized average relative binding affinity(ARB): 0.11
HLA B*0801
  Normalized average relative binding affinity(ARB): 1.0
HLA A*6802
  Normalized average relative binding affinity(ARB): 0.27
H-2 K^k
  Normalized average relative binding affinity(ARB): 0.48
HLA B*5401
  Normalized average relative binding affinity(ARB): 1.0
HLA B*5101
  Normalized average relative binding affinity(ARB): 0.44
H-2 D^d
  Normalized average relative binding affinity(ARB): 1.0
HLA B*1503
  Normalized average relative binding affinity(ARB): 1.0
H-2 D^b
  Normalized average relative binding affinity(ARB): 0.13
HLA B*5802
  Normalized average relative binding affinity(ARB): 0.30
HLA A*3001
  Normalized average relative binding affinity(ARB): 0.23
HLA B*3501
  Normalized average relative binding affinity(ARB): 0.20
H-2 K^d
  Normalized average relative binding affinity(ARB): 0.61
HLA B*5801
  Normalized average relative binding affinity(ARB): 0.31
HLA A*3201
  Normalized average relative binding affinity(ARB): 1.0

## XXXXXXXTX [3064.0157]
HLA B*1501
  Normalized average relative binding affinity(ARB): 0.40
HLA B*5301
  Normalized average relative binding affinity(ARB): 0.22
HLA B*0801
  Normalized average relative binding affinity(ARB): 0.24
HLA A*6802
  Normalized average relative binding affinity(ARB): 0.37
H-2 K^k
  Normalized average relative binding affinity(ARB): 0.28
HLA B*5401
  Normalized average relative binding affinity(ARB): 0.20
HLA B*5101
  Normalized average relative binding affinity(ARB): 0.57
H-2 D^d
  Normalized average relative binding affinity(ARB): 0.58
HLA B*1503
  Normalized average relative binding affinity(ARB): 0.23
H-2 D^b
  Normalized average relative binding affinity(ARB): 0.24
HLA B*5802
  Normalized average relative binding affinity(ARB): 0.66
HLA A*3001
  Normalized average relative binding affinity(ARB): 0.31
HLA B*3501
  Normalized average relative binding affinity(ARB): 0.26
H-2 K^d
  Normalized average relative binding affinity(ARB): 0.52
HLA B*5801
  Normalized average relative binding affinity(ARB): 0.29
HLA A*3201
  Normalized average relative binding affinity(ARB): 0.86

## XXXXXXXVX [3064.0158]
HLA B*1501
  Normalized average relative binding affinity(ARB): 0.38
HLA B*5301
  Normalized average relative binding affinity(ARB): 0.51
HLA B*0801
  Normalized average relative binding affinity(ARB): 0.48
HLA A*6802
  Normalized average relative binding affinity(ARB): 0.17
H-2 K^k
  Normalized average relative binding affinity(ARB): 0.38
HLA B*5401
  Normalized average relative binding affinity(ARB): 0.10
HLA B*5101
  Normalized average relative binding affinity(ARB): 0.32
H-2 D^d
  Normalized average relative binding affinity(ARB): 0.52
HLA B*1503
  Normalized average relative binding affinity(ARB): 0.34
H-2 D^b
  Normalized average relative binding affinity(ARB): 0.35
HLA B*5802
  Normalized average relative binding affinity(ARB): 0.26
HLA A*3001
  Normalized average relative binding affinity(ARB): 0.19
HLA B*3501
  Normalized average relative binding affinity(ARB): 0.37
H-2 K^d
  Normalized average relative binding affinity(ARB): 0.37
HLA B*5801
  Normalized average relative binding affinity(ARB): 0.20
HLA A*3201
  Normalized average relative binding affinity(ARB): 0.62

## XXXXXXXWX [3064.0159]
HLA B*1501
  Normalized average relative binding affinity(ARB): 0.035
HLA B*5301
  Normalized average relative binding affinity(ARB): 0.099
HLA B*0801
  Normalized average relative binding affinity(ARB): 0.11
HLA A*6802
  Normalized average relative binding affinity(ARB): 0.16
H-2 K^k
  Normalized average relative binding affinity(ARB): 0.18
HLA B*5401
  Normalized average relative binding affinity(ARB): 0.051
HLA B*5101
  Normalized average relative binding affinity(ARB): 0.20
H-2 D^d
  Normalized average relative binding affinity(ARB): 0.27
HLA B*1503
  Normalized average relative binding affinity(ARB): 0.13
H-2 D^b
  Normalized average relative binding affinity(ARB): 0.13
HLA B*5802
  Normalized average relative binding affinity(ARB): 0.16
HLA A*3001
  Normalized average relative binding affinity(ARB): 0.16
HLA B*3501
  Normalized average relative binding affinity(ARB): 0.047
H-2 K^d
  Normalized average relative binding affinity(ARB): 0.26
HLA B*5801
  Normalized average relative binding affinity(ARB): 0.84
HLA A*3201
  Normalized average relative binding affinity(ARB): 0.089

## XXXXXXXYX [3064.0160]
HLA B*1501
  Normalized average relative binding affinity(ARB): 0.20
HLA B*5301
  Normalized average relative binding affinity(ARB): 0.23
HLA B*0801
  Normalized average relative binding affinity(ARB): 0.13
HLA A*6802
  Normalized average relative binding affinity(ARB): 0.22
H-2 K^k
  Normalized average relative binding affinity(ARB): 0.38
HLA B*5401
  Normalized average relative binding affinity(ARB): 0.0018
HLA B*5101
  Normalized average relative binding affinity(ARB): 0.67
H-2 D^d
  Normalized average relative binding affinity(ARB): 0.40
HLA B*1503
  Normalized average relative binding affinity(ARB): 0.17
H-2 D^b
  Normalized average relative binding affinity(ARB): 0.97
HLA B*5802
  Normalized average relative binding affinity(ARB): 1.0
HLA A*3001
  Normalized average relative binding affinity(ARB): 1.0
HLA B*3501
  Normalized average relative binding affinity(ARB): 0.16
H-2 K^d
  Normalized average relative binding affinity(ARB): 0.56
HLA B*5801
  Normalized average relative binding affinity(ARB): 0.42
HLA A*3201
  Normalized average relative binding affinity(ARB): 0.24

## XXXXXXYXX [3064.0140]
HLA B*1501
  Normalized average relative binding affinity(ARB): 0.28
HLA B*5301
  Normalized average relative binding affinity(ARB): 0.12
HLA B*0801
  Normalized average relative binding affinity(ARB): 0.27
HLA A*6802
  Normalized average relative binding affinity(ARB): 0.62
H-2 K^k
  Normalized average relative binding affinity(ARB): 0.092
HLA B*5401
  Normalized average relative binding affinity(ARB): 0.32
HLA B*5101
  Normalized average relative binding affinity(ARB): 1.0
H-2 D^d
  Normalized average relative binding affinity(ARB): 0.076
HLA B*1503
  Normalized average relative binding affinity(ARB): 0.17
H-2 D^b
  Normalized average relative binding affinity(ARB): 1.0
HLA B*5802
  Normalized average relative binding affinity(ARB): 0.069
HLA A*3001
  Normalized average relative binding affinity(ARB): 0.20
HLA B*3501
  Normalized average relative binding affinity(ARB): 0.32
H-2 K^d
  Normalized average relative binding affinity(ARB): 0.11
HLA B*5801
  Normalized average relative binding affinity(ARB): 0.94
HLA A*3201
  Normalized average relative binding affinity(ARB): 0.55

## XXXXXYXXX [3064.0120]
HLA B*1501
  Normalized average relative binding affinity(ARB): 0.20
HLA B*5301
  Normalized average relative binding affinity(ARB): 1.0
HLA B*0801
  Normalized average relative binding affinity(ARB): 0.0094
HLA A*6802
  Normalized average relative binding affinity(ARB): 0.43
H-2 K^k
  Normalized average relative binding affinity(ARB): 0.35
HLA B*5401
  Normalized average relative binding affinity(ARB): 0.19
HLA B*5101
  Normalized average relative binding affinity(ARB): 0.097
H-2 D^d
  Normalized average relative binding affinity(ARB): 0.83
HLA B*1503
  Normalized average relative binding affinity(ARB): 0.40
H-2 D^b
  Normalized average relative binding affinity(ARB): 0.68
HLA B*5802
  Normalized average relative binding affinity(ARB): 0.64
HLA A*3001
  Normalized average relative binding affinity(ARB): 0.21
HLA B*3501
  Normalized average relative binding affinity(ARB): 0.061
H-2 K^d
  Normalized average relative binding affinity(ARB): 0.26
HLA B*5801
  Normalized average relative binding affinity(ARB): 1.0
HLA A*3201
  Normalized average relative binding affinity(ARB): 0.38

## XXXXYXXXX [3064.0100]
HLA B*1501
  Normalized average relative binding affinity(ARB): 0.95
HLA B*5301
  Normalized average relative binding affinity(ARB): 0.087
HLA B*0801
  Normalized average relative binding affinity(ARB): 0.064
HLA A*6802
  Normalized average relative binding affinity(ARB): 0.27
H-2 K^k
  Normalized average relative binding affinity(ARB): 0.14
HLA B*5401
  Normalized average relative binding affinity(ARB): 0.084
HLA B*5101
  Normalized average relative binding affinity(ARB): 0.26
H-2 D^d
  Normalized average relative binding affinity(ARB): 0.24
HLA B*1503
  Normalized average relative binding affinity(ARB): 0.34
H-2 D^b
  Normalized average relative binding affinity(ARB): 0.013
HLA B*5802
  Normalized average relative binding affinity(ARB): 0.62
HLA A*3001
  Normalized average relative binding affinity(ARB): 0.21
HLA B*3501
  Normalized average relative binding affinity(ARB): 0.22
H-2 K^d
  Normalized average relative binding affinity(ARB): 0.015
HLA B*5801
  Normalized average relative binding affinity(ARB): 0.33
HLA A*3201
  Normalized average relative binding affinity(ARB): 0.28
